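Compound exposure: 48 hours, 5 concentrations, 96-well plates. At the TGI there is no net growth.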
Legend:
Experiment in all cases: DTP human tumour cell line panel, 48 h
BT-549 breast = tested on: BT-549 breast
HT29 colon = tested on: HT29 colon
MDA-N = tested on: MDA-N
MOLT-4 leukemia = tested on: MOLT-4 leukemia
NCI-H522 lung = tested on: NCI-H522 lung
SF-268 CNS = tested on: SF-268 CNS
SK-MEL-2 melanoma = tested on: SK-MEL-2 melanoma
SK-MEL-5 melanoma = tested on: SK-MEL-5 melanoma
SN12C renal = tested on: SN12C renal
SR leukemia = tested on: SR leukemia
IGROV1 ovarian = tested on: IGROV1 ovarian

SMILES | TGI (BT-549 breast) [µM] | TGI (HT29 colon) [µM] | TGI (MDA-N) [µM] | TGI (MOLT-4 leukemia) [µM] | TGI (NCI-H522 lung) [µM] | TGI (SF-268 CNS) [µM] | TGI (SK-MEL-2 melanoma) [µM] | TGI (SK-MEL-5 melanoma) [µM] | TGI (SN12C renal) [µM] | TGI (SR leukemia) [µM] | TGI (IGROV1 ovarian) [µM]
NS(=O)(=O)c1nnc(NC(=O)Nc2ccc(Cl)c(Cl)c2)s1 | 52.2 | 37.9 | 44.8 | 84.2 | 30.1 | 67.5 | 74.2 | 30.8 | 39.7 | 60.6 | 
Oc1ccc(-c2nc3ccc(Br)cc3s2)cc1 | 44.7 | 50.5 | > 100 | > 100 | 22.9 | 57.4 | 33.3 | 60.2 | 49.6 | 36.2 | 33.6
COC(=O)c1c(C)nc2c1cc(O)c1[nH]c(C)c(C)nc12 | > 100 | > 100 | > 100 | > 100 | > 100 | > 100 | > 100 | > 100 | > 100 | > 100 | > 100
O=C(N/N=C/c1ccc(Cl)cc1)c1c(Cl)c(Cl)c(Cl)c(Cl)c1-c1nc2ccccc2[nH]1 | > 100 | > 100 | > 100 | > 100 | > 100 | > 100 | > 100 | > 100 | > 100 | > 100 | > 100
O=C1CCCCC1CN1CCCCC1 (stereo not given) | > 100 | > 100 | > 100 | > 100 | 4.42 | > 100 | > 100 | > 100 | > 100 | > 100 | > 100
CCN(CC)C(=S)N/N=C/c1cc([N+](=O)[O-])ccc1O | 33.2 | > 100 | > 100 | 25.1 | 17.6 | 57.5 | 65.6 | 8.94 | 25.6 | 25.6 | 16.7
CCCCCC1=CC(=O)C1(Cl)Cl | 56.8 | 36.7 | 28.3 | 15.3 | 15.8 | 55.5 | 47.7 | 24 | 72 | 19.4 | 48
Oc1ccccc1CNCc1nc2ccccc2[nH]1 | > 100 | > 100 | > 100 | > 100 | > 100 | > 100 | > 100 | 65.6 | > 100 | > 100 | > 100
Oc1ccc(Cc2cc(Cc3ccc(O)cc3)cc(Cc3ccc(O)cc3)c2)cc1 | > 50 | > 50 | > 50 | > 50 | > 50 | > 50 | > 50 |  | > 50 | > 50 | > 50
N[C@@H](CCC(=O)NCP(=O)(O)O)C(=O)O | > 100 | > 100 | > 100 | > 100 | > 100 |  | > 100 | > 100 | > 100 | > 100 | > 100
CC(=O)Nn1c(=S)[nH]c2ccccc21 | > 100 | > 100 | > 100 | > 100 | > 100 | > 100 | > 100 | > 100 | > 100 | > 100 | > 100
O=C(c1ccccn1)C1(N2CCCCC2)CCCCC1 | > 100 | > 100 | > 100 | > 100 | 37 | 64.3 | > 100 | > 100 | > 100 | > 100 | > 100
CC1(C(=O)O)CCC2(C)CCC3(C)C(=CC(=O)C4C5(C)CCC(O)C(C)(C)C5CCC43C)C2C1 (stereo not given) | 42.3 | 38.7 | > 100 | > 100 | 50.1 | 67.4 | 92.4 | 54.3 | > 100 | 61 | 
COP(=O)(OC)C1=c2c(C)noc2=C2C=COC2C1=O (stereo not given) | > 100 | > 100 | > 100 | > 100 | > 100 | > 100 | > 100 | > 100 | > 100 | > 100 | > 100
COC(=O)C1CC(C=[N+](C)C)=C(SC)N1C(=O)OCc1ccccc1 (stereo not given) | > 100 | > 100 | > 100 | > 100 | > 100 | > 100 | > 100 | > 100 |  | > 100 | > 100
CC(=O)Nc1nc(NC(C)=O)c2[nH]c(CO)nc2n1 | > 100 | > 100 | > 100 | > 100 | > 100 | > 100 | > 100 | > 100 | > 100 | > 100 | > 100
Nc1nccc(-c2c[nH]c3cc(Br)ccc23)n1 | > 100 | 44.7 | 45.8 | 61.8 | 38.4 | > 100 | 47.2 | 36.7 | 49.8 | 46.7 | > 100
CC(=O)N1C(C(=O)NC2CCCCC2)CSC1c1ccccc1 (stereo not given) | > 100 | > 100 | > 100 | > 100 | > 100 | > 100 | > 100 | > 100 | > 100 | > 100 | > 100
O=C(OCc1ccccc1)N1CCNCCN(C(=O)OCc2ccccc2)CCNCC1 | > 100 | 42 | 31 | 50.4 | 34.5 |  | 42.3 | 26.7 | > 100 | > 100 | > 100
CCOC(=O)N1CCN(Cc2cc(=O)n3ccc(C)cc3n2)CC1 | > 100 | > 100 | > 100 | > 100 | > 100 | > 100 | > 100 | > 100 | > 100 | > 100 | > 100
CCOC(=O)Nc1sc2c(c1C#N)CCCC2 | > 100 | > 100 | > 100 | > 100 | > 100 | > 100 | > 100 | > 100 | > 100 | > 100 | > 100

SMILES | TGI (BT-549 breast) [µM] | TGI (HT29 colon) [µM] | TGI (MDA-N) [µM] | TGI (MOLT-4 leukemia) [µM] | TGI (NCI-H522 lung) [µM] | TGI (SF-268 CNS) [µM] | TGI (SK-MEL-2 melanoma) [µM] | TGI (SK-MEL-5 melanoma) [µM] | TGI (SN12C renal) [µM] | TGI (SR leukemia) [µM] | TGI (IGROV1 ovarian) [µM]
Nc1c(-c2ccc(Cl)c(Cl)c2)c2ccc([N+](=O)[O-])cc2c(=O)n1-c1nc2ccccc2s1 | 21.7 | > 34.2 | > 36 | > 100 | 3.02 | > 39.4 | 14.4 | 1.18 | 12.3 | > 100 | > 100
Cc1oc2c(cc(O)c3cc(O)ccc32)c2cccc1-2 | 44 | > 100 | > 100 | > 100 | > 100 | > 100 | > 100 | > 100 | > 100 | > 100 | > 100
CC1=Nc2ccccc2OC(C)=C1N=Nc1ccc2nc(C)[nH]c2c1 | > 100 | > 100 | > 100 | > 100 | > 100 | > 100 | > 100 |  | > 100 | > 100 | > 100
c1ccc2c3[nH]c(c2c1)=Nc1ccc(cc1)-c1nc2cc(ccc2o1)N=c1[nH]c(c2ccccc12)=Nc1ccc2nc(oc2c1)-c1ccc(cc1)N=3 | > 100 | > 100 | > 100 | > 100 | > 100 | > 100 |  | > 100 | > 100 | > 100 | > 100
COc1ccc(C(=C2C=CC=C2)c2ccc(OC)cc2)cc1 | > 100 | 66 | > 100 | 40.3 | 40.4 | > 100 | 68.5 | 95.3 | 81.3 | 86.7 | > 100
CCCCOC(=O)Nc1ccc(S(=O)(=O)Nc2ccccc2Cl)cc1 | 39.2 | 35.9 | 33.8 | 51.5 | 49.3 | 36.5 | 38.8 | 24.3 | 48.8 | 26.8 | 49
O=C(/C=C/c1ccc2c(c1)OCO2)c1ccc(O)cc1 | 27.4 | 29.8 | 22.9 |  | 6.72 | > 100 | 32.7 | 29.1 | 29.1 | 4.96 | 30.2
NC(N)=Nc1ccc(CC(N)NCC(=O)O)cc1 (stereo not given) | > 25 | > 25 | > 25 | > 25 | > 25 | > 25 | > 25 | > 25 | > 25 | > 25 | > 25
CC(C)=CCC[C@@H](C)c1c(O)c(O)c(C)c2nccnc12 | > 100 | > 65.6 | > 100 | > 53.1 | 23.6 | > 100 | 58 | 18.9 | > 100 | > 100 | > 81.5
COc1ccc(N=NC(=Nc2ccccc2)c2ccc(N(CCC#N)CCC#N)cc2)cc1 | > 100 | > 100 | > 100 | > 100 | 69.1 | > 100 | > 100 | > 100 | > 100 | > 100 | 89.3
O=[N+]([O-])c1ccc2[nH]nc(OCc3ccccc3Cl)c2c1 |  | > 100 | > 100 | > 100 | 72.7 | > 100 | 90.6 | > 100 | > 100 | > 100 | > 100
Oc1ccc2c(c1)c1c(n2CCN2CCOCC2)-c2ccccc2CC1 | > 100 | 45.8 | > 100 | > 100 |  | > 100 | 55.1 |  | 95.9 | 91.5 | 57.6
S=C(N/N=C(/c1ccccc1)c1ccccn1)N(Cc1ccccn1)Cc1ccccn1 | 1.51 | 2.09 | 7.62 | 16.1 | 4.5 | 4.84 | 3.04 | 3.12 | 3.47 | 43.5 | 2.03
Cc1ccc(-c2csc(=Nc3ccccc3)n2NC(=O)c2ccncc2)cc1 | > 91.8 | 60 | > 100 | > 76.8 |  | > 100 | 96.1 | 34.8 | > 100 | > 100 | > 100
NC1(c2cc3ccccc3s2)CCCC1 | > 100 | > 100 | > 100 | 47.3 | > 100 | > 100 | > 100 | 68.2 | > 100 | 44.2 | > 100
Cc1ccccc1C(=N)c1ccccc1Cc1cccc2ccccc12 | 92 | > 100 | 65.7 | 42.3 | 34.6 | 68.2 | 35.1 | 34.5 | 39.5 | 41.2 | > 100
Cc1cc(-c2nc3ccc(F)cc3s2)ccc1NC(=O)[C@H](C)N | 26.8 | 8.38 | 6.19 | 12.8 | 20.7 | 22.8 | 25.2 | 26.3 | 28.7 | 5.65 | 20
N=c1nnc2ccc(Cl)cc2n1O | > 100 | > 100 | > 100 | > 100 | > 100 | > 100 | > 100 | > 100 | > 100 | > 100 | > 100
C=CC1(CC/C(=C\[N+](=O)[O-])c2ccc(OC)c(OC)c2)OCC(C)(C)CO1 | 31.1 | 97.8 | 55.5 | 6.05 | 37.8 | 39.1 | 37.7 | 87.2 | 47.6 | 29.4 | 
CC1(C)O[C@H]2OC(CO[Si](C)(C)C(C)(C)C)C(N=[N+]=[N-])[C@H]2O1 (stereo not given in full) | 36.7 | 25.5 | 53.8 | 33.9 |  | 41.3 | 32 |  | 36.2 | 32.2 | 21.8
COc1cc(S(=O)(=O)Nc2nc(-c3ccc(N4C(=O)C(CC(=O)O)SC4c4cccs4)cc3)cs2)ccc1Cl (stereo not given) |  | > 100 | > 100 | 64.6 | 37.1 | 50.9 | 69.7 | > 100 | > 100 | 79.1 | 66

Source: PubChem BioAssay (NCI)
